Experimental findings from patent publication US9938261B2, “Heterocyclic compounds and methods of use thereof” (AMBIT BIOSCIENCES CORPORATION, priority 2011, dated 2018) are described below.

Bounds are passed on as bounds.

One assay has as its system M-NFS-60 cells. As to the kind of experiment: M-NFS-60 cell proliferation assay (Alamar Blue). The format is cell-based, mouse. Conditions: Mus musculus; M-NFS-60 cell proliferation; read-out: CSF1R M-NFS-60 CTB:IC50. The procedure, abridged: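 Alamar Blue reduction (3 h; 560/590 nm) measured viability after 72 h, 37 °C treatment with nine half-log compound concentrations at 0.5% DMSO. Cells: M-CSF-dependent (20 ng/mL) murine M-NFS-60 in RPMI plus 10% FBS. IC50s, averaged from duplicates, reflect half-maximal inhibition of proliferation relative to control.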

A further assay addresses T1, KIT (Homo sapiens, UniProt P10721).
T1 construct: made in house
As to the kind of experiment: Competition binding assay, KIT Kd. The conditions noted are these: competition binding. The procedure, abridged:
(§1)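 Compound displacement of kinase from bead-immobilized ligand is measured by qPCR after 1 h equilibration at room temperature. Kinases are T7 phage fusions or DNA-tagged HEK-293 products.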

Assay [1] concerns the target T2, CSF1R (Homo sapiens, UniProt P07333). As to the kind of experiment: HEK293 CSF1R phosphorylation MSD assay. Also noted: expressed in transfected cells; host or cells: HEK293. Conditions: HEK293 cells, M-CSF stimulated CSF1R phosphorylation, MSD; read-out: HEK293 pCSF1R M-CSF MSD:IC50. The format is cell-based. The procedure, abridged: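 Ligand-induced CSF1R autophosphorylation was measured by MSD sandwich assay: CSF1R-FKBP from lysates captured via FK506, anti-phosphotyrosine readout. Cells were exposed to compound for 2 h (9-point, half-log, 0.5% DMSO) before 5 min 50 ng/mL M-CSF. Reported IC50 is the mean of duplicate-plate IC50s relative to DMSO control.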

For assay [2], the target named is T2, CSF1R. In words: Competition binding assay, CSF1R Kd. Also noted: made in house. Conditions: competition binding. The procedure, abridged:
as §1

T2 sequence (P07333 20-972): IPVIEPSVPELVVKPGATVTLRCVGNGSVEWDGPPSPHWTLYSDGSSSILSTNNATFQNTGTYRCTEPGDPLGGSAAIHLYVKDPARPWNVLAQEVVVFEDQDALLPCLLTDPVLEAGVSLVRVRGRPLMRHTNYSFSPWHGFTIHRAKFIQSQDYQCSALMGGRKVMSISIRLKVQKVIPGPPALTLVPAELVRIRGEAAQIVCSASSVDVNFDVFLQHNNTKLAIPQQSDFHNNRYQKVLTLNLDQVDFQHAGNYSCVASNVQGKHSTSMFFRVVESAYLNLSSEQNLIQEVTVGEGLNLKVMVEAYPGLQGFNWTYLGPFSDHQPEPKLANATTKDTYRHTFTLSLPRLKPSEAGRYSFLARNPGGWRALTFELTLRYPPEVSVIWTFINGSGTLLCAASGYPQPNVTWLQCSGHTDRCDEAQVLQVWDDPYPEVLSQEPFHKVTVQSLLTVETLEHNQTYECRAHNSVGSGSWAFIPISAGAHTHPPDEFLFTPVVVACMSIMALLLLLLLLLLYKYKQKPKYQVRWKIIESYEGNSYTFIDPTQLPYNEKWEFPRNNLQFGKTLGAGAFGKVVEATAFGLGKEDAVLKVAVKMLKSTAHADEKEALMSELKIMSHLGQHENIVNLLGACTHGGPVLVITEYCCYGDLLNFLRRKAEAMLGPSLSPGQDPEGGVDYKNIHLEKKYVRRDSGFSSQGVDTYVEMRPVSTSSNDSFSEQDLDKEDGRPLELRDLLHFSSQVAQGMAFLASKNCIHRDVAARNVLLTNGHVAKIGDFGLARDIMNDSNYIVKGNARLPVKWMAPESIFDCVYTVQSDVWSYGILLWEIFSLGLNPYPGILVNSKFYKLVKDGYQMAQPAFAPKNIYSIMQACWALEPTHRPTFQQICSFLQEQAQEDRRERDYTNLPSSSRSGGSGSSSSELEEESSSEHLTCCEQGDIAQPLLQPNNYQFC
T1 sequence (P10721 26-976): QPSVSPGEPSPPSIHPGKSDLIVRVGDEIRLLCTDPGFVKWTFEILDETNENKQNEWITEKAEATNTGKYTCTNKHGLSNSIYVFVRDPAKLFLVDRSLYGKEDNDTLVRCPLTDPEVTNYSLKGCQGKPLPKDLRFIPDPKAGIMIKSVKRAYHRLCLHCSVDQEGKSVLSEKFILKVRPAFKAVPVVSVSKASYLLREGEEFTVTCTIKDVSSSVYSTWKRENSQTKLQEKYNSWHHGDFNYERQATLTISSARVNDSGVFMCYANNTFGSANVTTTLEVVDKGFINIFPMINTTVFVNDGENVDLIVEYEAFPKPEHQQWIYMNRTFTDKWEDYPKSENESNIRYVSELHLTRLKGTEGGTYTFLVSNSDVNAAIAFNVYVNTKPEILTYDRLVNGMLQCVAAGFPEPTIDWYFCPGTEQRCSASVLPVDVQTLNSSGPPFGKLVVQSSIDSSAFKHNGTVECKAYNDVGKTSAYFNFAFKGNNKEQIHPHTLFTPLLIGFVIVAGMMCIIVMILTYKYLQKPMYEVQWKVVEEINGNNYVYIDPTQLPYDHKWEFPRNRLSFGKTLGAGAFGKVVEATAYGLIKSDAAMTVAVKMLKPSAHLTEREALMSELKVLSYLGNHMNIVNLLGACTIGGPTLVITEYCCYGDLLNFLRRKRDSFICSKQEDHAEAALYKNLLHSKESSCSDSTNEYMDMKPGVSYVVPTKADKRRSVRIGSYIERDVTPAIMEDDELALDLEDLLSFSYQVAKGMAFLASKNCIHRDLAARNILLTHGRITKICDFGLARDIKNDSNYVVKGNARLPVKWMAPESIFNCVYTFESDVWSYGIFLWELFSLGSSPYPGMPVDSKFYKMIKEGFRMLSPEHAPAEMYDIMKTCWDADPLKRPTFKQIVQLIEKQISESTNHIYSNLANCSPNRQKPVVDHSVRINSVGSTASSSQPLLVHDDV

On to `CC(O)c1cnc2c(c1)ncn2Cc1ccc2nc(N[C@@H]3CCCC[C@H]3O)sc2c1` (stereo partly drawn) [Example 115, (1R,2R)-2-((6-((6-((R,S)-1-hydroxyethyl)-3H-imidazo[4,5-b]pyridin-3-yl)methyl)benzo[d]thiazol-2-yl)amino)cyclohexanol], for which the IC50 in the assay on M-NFS-60 cells lay within 50 to 400 nM; on CSF1R [1], 50 to 200 nM. Further, the values for the Kd at KIT and at CSF1R [2] were 500 to 2000 nM and over 50 nM, respectively.

For `O[C@@H]1[C@H](O)CCC[C@H]1Nc1nc2ccc(Cn3cnc4cc(N5CCOCC5)ccc43)cc2s1` [Example 235, (1R,2S,3R)-3-((6-((5-morpholino-1H-benzo[d]imidazol-1-yl)methyl)benzo[d]thiazol-2-yl)amino)cyclohexane-1,2-diol], the IC50 in the assay on M-NFS-60 cells fell in the range of 50 to 400 nM; on CSF1R [1], 50 to 200 nM. Besides, the results for the dissociation constant (Kd) on KIT and on CSF1R [2] were at most 100 nM and 5 to 20 nM, respectively.

Turning to `O[C@@H]1CCCC[C@H]1Nc1nc2ccc(Cc3cnc4cc(-n5cncn5)ccn34)cc2s1` [Example 169, (1R,2R)-2-((6-((7-(1H-1,2,4-triazol-1-yl)imidazo[1,2-a]pyridin-3-yl)methyl)benzo[d]thiazol-2-yl)amino)cyclohexanol], the IC50 lay within 50 to 400 nM in the assay with M-NFS-60 cells and 50 to 200 nM on CSF1R [1]. The results for the Kd on KIT and at CSF1R [2] were 500 to 2000 nM and 5 to 20 nM, respectively.

As to `O[C@@H]1CCCC[C@H]1Nc1nc2c(Cl)cc(Cc3cnc4ccc(N5CCOCC5)nn34)cc2s1` [Example 156, (1R,2R)-2-((4-chloro-6-((6-morpholinoimidazo[1,2-b]pyridazin-3-yl)methyl)benzo[d]thiazol-2-yl)amino)cyclohexanol], the half-maximal inhibitory concentration (IC50) in the assay on M-NFS-60 cells is 400 to 1500 nM; on CSF1R [1] it was 200 to 500 nM. Also, the dissociation constant Kd is over 2000 nM on KIT and 5 to 20 nM at CSF1R [2].

Consider `CC(=O)c1ccc2ncn(Cc3ccc4nc(N[C@@H]5CCCC[C@H]5O)sc4c3)c2c1` [Example 120, 1-(1-((2-(((1R,2R)-2-hydroxycyclohexyl)amino)benzo[d]thiazol-6-yl)methyl)-1H-benzo[d]imidazol-6-yl)ethanone], for which the half-inhibitory concentration (IC50) in the assay on M-NFS-60 cells is 50 to 400 nM; at CSF1R [1], 50 to 200 nM. Besides, the values for the Kd at KIT and on CSF1R [2] were 100 to 500 nM and 5 to 20 nM, respectively.

Turning to `O[C@@H]1CCCC[C@H]1Nc1nc2ccc(Cn3cnc4cc(-n5cccn5)cnc43)cc2s1` [Example 141, (1R,2R)-2-((6-((6-(1H-pyrazol-1-yl)-3H-imidazo[4,5-b]pyridine-3-yl)methyl)benzo[d]thiazol-2-yl)amino)cyclohexanol], the 50% inhibitory concentration (IC50) in the assay with M-NFS-60 cells and at CSF1R [1] was at most 50 nM throughout. In addition, the Kd at KIT is at most 100 nM; on CSF1R [2], at most 5 nM.

As for `O[C@@H]1CCCC[C@H]1Nc1nc2ccc(Cn3cnc4cc(-n5cncn5)cnc43)cc2s1` [Example 145, (1R,2R)-2-((6-((6-(1H-1,2,4-triazol-1-yl)-3H-imidazo[4,5-b]pyridin-3-yl)methyl)benzo[d]thiazol-2-yl)amino)cyclohexanol], the values for the half-maximal inhibitory concentration (IC50) with M-NFS-60 cells and at CSF1R [1] were 50 to 400 nM and at most 50 nM, respectively. Also, the dissociation constant Kd on KIT was 100 to 500 nM; at CSF1R [2] it was at most 5 nM.

Consider `COc1ccc2ncc(Cc3ccc4nc(N[C@@H]5CCCC[C@H]5O)sc4c3)n2c1` [Example 165, (1R,2R)-2-((6-((6-methoxyimidazo[1,2-a]pyridin-3-yl)methyl)benzo[d]thiazol-2-yl)amino)cyclohexanol], for which the IC50 with M-NFS-60 cells was 400 to 1500 nM; at CSF1R [1], over 500 nM. Moreover, the results for the equilibrium dissociation constant (Kd) on KIT and on CSF1R [2] were 500 to 2000 nM and 5 to 20 nM, respectively.

For the compound `C#Cc1ccc2c(c1)ncn2Cc1ccc2nc(N[C@@H]3CCCC[C@H]3O)sc2c1` [Example 121, (1R,2R)-2-((6-((5-ethynyl-1H-benzo[d]imidazol-1-yl)methyl)benzo[d]thiazol-2-yl)amino)cyclohexanol], the half-maximal inhibitory concentration (IC50) is 50 to 400 nM in the assay with M-NFS-60 cells and 50 to 200 nM at CSF1R [1]. Besides, the Kd at KIT is 100 to 500 nM; at CSF1R [2], 5 to 20 nM.

Consider `N#Cc1ccc2ncc(Cc3ccc4nc(N[C@@H]5CCCC[C@H]5O)sc4c3)n2n1` [Example 221, 3-((2-(((1R,2R)-2-hydroxycyclohexyl)amino)benzo[d]thiazol-6-yl)methyl)imidazo[1,2-b]pyridazine-6-carbonitrile], for which the 50% inhibitory concentration (IC50) with M-NFS-60 cells and at CSF1R [1] was at most 50 nM each time. The values for the Kd at KIT and on CSF1R [2] were at most 100 nM and at most 5 nM, respectively.

For the compound `CCOc1ccc2c(c1)ncn2Cc1ccc2nc(N[C@@H]3CCCC[C@H]3O)sc2c1` [Example 138, (1R,2R)-2-((6-((5-ethoxy-1H-benzo[d]imidazol-1-yl)methyl)benzo[d]thiazol-2-yl)amino)cyclohexanol], the IC50 with M-NFS-60 cells and at CSF1R [1] was at most 50 nM in each case. The values for the Kd on KIT and on CSF1R [2] were at most 100 nM and at most 5 nM, respectively.

On to `COc1ccc2c(c1)ncn2Cc1ccc2nc(N[C@@H]3CCCC[C@H]3O)oc2c1` [Example 151, (1R,2R)-2-((6-((5-methoxy-1H-benzo[d]imidazol-1-yl)methyl)benzo[d]oxazol-2-yl)amino)cyclohexanol], for which the IC50 in the assay with M-NFS-60 cells is 50 to 400 nM; at CSF1R [1], at most 50 nM. Further, the dissociation constant (Kd) is at most 100 nM on KIT and 5 to 20 nM at CSF1R [2].

Turning to `O[C@@H]1CCCC[C@H]1Nc1nc2ccc(Cn3cnc4cc(F)c(F)cc43)cc2s1` [Example 128, (1R,2R)-2-((6-((5,6-difluoro-1H-benzo[d]imidazol-1-yl)methyl)benzo[d]thiazol-2-yl)amino)cyclohexanol], the IC50 in the assay with M-NFS-60 cells is 400 to 1500 nM; on CSF1R [1], 200 to 500 nM. Further, the dissociation constant Kd on KIT was in the range of 100 to 500 nM; at CSF1R [2] it was 5 to 20 nM.

Regarding `O[C@@H]1CCCC[C@H]1Nc1nc2ccc(Cn3cnc4cc(F)cnc43)cc2o1` [Example 132, (1R,2R)-2-((6-((6-fluoro-3H-imidazo[4,5-b]pyridin-3-yl)methyl)benzo[d]oxazol-2-yl)amino)cyclohexanol], the results for the 50% inhibitory concentration (IC50) in the assay on M-NFS-60 cells and at CSF1R [1] were 50 to 400 nM and 50 to 200 nM, respectively. Moreover, the results for the Kd at KIT and at CSF1R [2] were at most 100 nM and at most 5 nM, respectively.

For the compound `N#Cc1ccc2c(c1)ncn2Cc1ccc2nc(N[C@@H]3CCCC[C@H]3O)oc2c1` [Example 170, 1-((2-(((1R,2R)-2-hydroxycyclohexyl)amino)benzo[d]oxazol-6-yl)methyl)-1H-benzo[d]imidazole-5-carbonitrile], the half-inhibitory concentration (IC50) with M-NFS-60 cells is over 1500 nM; on CSF1R [1], over 500 nM. Further, the Kd at KIT is over 2000 nM; at CSF1R [2] it was over 50 nM.

Consider `OCCOc1ccc2c(c1)ncn2Cc1ccc2nc(N[C@@H]3CCCC[C@H]3O)sc2c1` [Example 172, (1R,2R)-2-((6-((5-(2-hydroxyethoxy)-1H-benzo[d]imidazol-1-yl)methyl)benzo[d]thiazol-2-yl)amino)cyclohexanol], for which the IC50 in the assay with M-NFS-60 cells is 50 to 400 nM; on CSF1R [1], at most 50 nM. Moreover, the Kd is 100 to 500 nM on KIT and at most 5 nM on CSF1R [2].

For the compound `O[C@@H]1CCCC[C@H]1Nc1nc2ncc(Cn3cnc4cccnc43)cc2s1` [Example 114, (1R,2R)-2-((6-((3H-imidazo[4,5-b]pyridine-3-yl)methyl)thiazolo[4,5-b]pyridine-2-yl)amino)cyclohexanol], the IC50 in the assay on M-NFS-60 cells was over 1500 nM; at CSF1R [1], 50 to 200 nM. Further, the Kd was 100 to 500 nM at KIT and over 50 nM on CSF1R [2].

On to `CS(=O)(=O)c1ccc2c(c1)ncn2Cc1ccc2nc(N[C@@H]3CCCC[C@H]3O)sc2c1` [Example 112, (1R,2R)-2-((6-((5-(methylsulfonyl)-1H-benzo[d]imidazol-1-yl)methyl)benzo[d]thiazol-2-yl)amino)cyclohexanol], for which the results for the IC50 with M-NFS-60 cells and on CSF1R [1] were over 1500 nM and 200 to 500 nM, respectively. The results for the Kd on KIT and at CSF1R [2] were 500 to 2000 nM and 20 to 50 nM, respectively.

For `Fc1cnc2c(c1)ncn2Cc1ccc2nc(N[C@H]3C=CCCC3)sc2c1` [Example 176, (R)—N-(cyclohex-2-en-1-yl)-6-((6-fluoro-3H-imidazo[4,5-b]pyridin-3-yl)methyl)benzo[d]thiazol-2-amine], the IC50 fell in the range of 400 to 1500 nM with M-NFS-60 cells and 200 to 500 nM at CSF1R [1]. The dissociation constant (Kd) is 100 to 500 nM at KIT and 5 to 20 nM on CSF1R [2].

As for `OC[C@H]1CCCC[C@H]1Nc1nc2ccc(Cn3cnc4cc(Br)cnc43)cc2s1` [Example 136, ((1S,2R)-2-((6-((6-bromo-3H-imidazo[4,5-b]pyridin-3-yl)methyl)benzo[d]thiazol-2-yl)amino)cyclohexyl)methanol], the values for the IC50 in the assay on M-NFS-60 cells and on CSF1R [1] were 50 to 400 nM and 50 to 200 nM, respectively. Also, the Kd on KIT is at most 100 nM; at CSF1R [2], 5 to 20 nM.

Consider `O[C@@H]1CCCC[C@H]1Nc1nc2ccc(Cn3cnc4cc(C(F)(F)F)ccc43)cc2s1` [Example 130, (1R,2R)-2-((6-((5-(trifluoromethyl)-1H-benzo[d]imidazol-1-yl)methyl)benzo[d]thiazol-2-yl)amino)cyclohexanol], for which the IC50 in the assay on M-NFS-60 cells is 50 to 400 nM; at CSF1R [1] it was 200 to 500 nM. For the same compound, the Kd at KIT fell in the range of 100 to 500 nM; at CSF1R [2] it was 5 to 20 nM.
